Measured values from patent US11591574B2, “Optical-quality surface that imparts spatial control of macrophage fusion” (ARIZONA BOARD OF REGENTS ON BEHALF OF ARIZONA STATE …, priority 2016, dated 2023).
“Also recorded” adds a separate entry of the source.

Test system: macrophages
Experiment: IL-4-induced macrophage fusion (fusion index)
Format: cell-based, mouse
Procedure: To test the rates of cell fusion on the above described glass slides with a pattern surface, monocytes or macrophages are collected according to standard protocols and applied to hydrocarbon chain surface. After 30 minutes, the cultures are washed 3 times rapidly with phosphate-buffered saline to remove unbound cells, and complete cell culture medium (DMEM:F12, 10% FBS, 1% antibiotics) is applied to the culture for about 2 hours. After about 2 hours, about 10 ng/ml of interleukin-4 is applied to the culture to induce fusion and the culture is incubated until the respective time point.
Macrophages were isolated from the mouse peritoneum 72 hr after injection of a sterile 4% solution of Brewer's thioglycollate (Sigma Aldrich, St. Louis, Mo.). […] Immediately following euthanasia, 5 mL of an ice-cold solution of phosphate-buffered saline (PBS, pH 7.4) supplemented with 5 mM EDTA was injected aseptically into the peritoneum, the lavage containing cells was collected, and the cells were counted with a Neubauer hemocytometer. […]
Peritoneal lavage cells were applied to various surfaces at a concentration of 2,000 cells/mm2 and incubated in 5% CO2 at 37° C. for 30 min. […] The extent of MGCs formation was evaluated by determining the fusion index. […] Three to 5 bright field images collected at 20× objective magnification were analyzed per specimen.

SMILES: CCCCCCCC/C=C\CCCCCCCC(N)=O [oleamide]
- increase in fusion versus clean glass (adsorption onto clean glass): ~4 fold
- level of macrophage fusion (hydrocarbon deposited on optical-quality glass, IL-4 induced): high-levels; also recorded: high levels
